The values that follow come from ChEMBL document CHEMBL4699433, “Rational design, synthesis and testing of novel tricyclic topoisomerase inhibitors for the treatment of bacterial infections part 2” (RSC Med Chem, 2020).

One data set concerns Escherichia coli. Description: Antibacterial activity against Escherichia coli ATCC 25922 assessed as reduction in bacterial growth by CLSI based broth microdilution method. It counts as functional. A general note: Dilution methods test growth across graded concentrations, often in twofold steps.
The subject of a further data set is Streptococcus pneumoniae. The data set can be described thus: Antibacterial activity against Streptococcus pneumoniae ATCC 49619 assessed as reduction in bacterial growth by CLSI based broth microdilution method. In kind it is functional.
Data set [1] in a line: Thermodynamic solubility of the compound. As to conditions: read-out: Therm_solubility. It counts as physicochemical.
The subject of another data set is Staphylococcus aureus. Description: Antibacterial activity against wild type methicillin-sensitive Staphylococcus aureus ATCC 29213 assessed as reduction in bacterial growth by CLSI based broth microdilution method. In kind it is functional.
Another data set deals with Haemophilus influenzae. The data set can be described thus: Antibacterial activity against Haemophilus influenzae ATCC 49247 assessed as reduction in bacterial growth by CLSI based broth microdilution method. In kind it is functional.

In brackets after ≈: the same amount, converted by molar mass.

Take `Cc1nc2c(=O)n(C3CC3)c3c(Cl)c(N4CC[C@H](CN)C4)c(F)cc3c2o1`: the MIC was 0.5 µg/mL (≈ 1.28 µM) in the data set on Escherichia coli, 0.12 µg/mL (≈ 0.307 µM) with Streptococcus pneumoniae, 0.12 µg/mL (≈ 0.307 µM) in the data set on Staphylococcus aureus and 1 µg/mL (≈ 2.56 µM) in the data set on Haemophilus influenzae. Besides, in data set [1], the solubility thermodynamic was determined as 601 µg/mL (≈ 1540 µM).

Regarding `Cc1nc2c(=O)n(C3CC3)c3c(Cl)c(N4CCC(N(C)C)C4)c(F)cc3c2o1` (configuration not stated), the MIC amounted to 4 µg/mL (≈ 9.88 µM) in the data set on Escherichia coli, 4 µg/mL (≈ 9.88 µM) in the data set with Streptococcus pneumoniae, 4 µg/mL (≈ 9.88 µM) in the data set on Staphylococcus aureus and 8 µg/mL (≈ 19.8 µM) with Haemophilus influenzae.

As for `Cc1nc2c(=O)n(C3CC3)c3c(Cl)c(N4CC[C@@H](CN)C4)c(F)cc3c2o1`, the MIC in the data set with Escherichia coli turned out to be 1 µg/mL (≈ 2.56 µM); in the data set on Streptococcus pneumoniae it was 0.12 µg/mL (≈ 0.307 µM); with Staphylococcus aureus, 0.12 µg/mL (≈ 0.307 µM). For the same molecule, in data set [1], the solubility thermodynamic worked out at 950 µg/mL (≈ 2430 µM).

For the molecule `Cc1nc2c(=O)n(C3CC3)c3cc(N4CCC(N)CC4)c(F)cc3c2o1`, the MIC in the data set on Escherichia coli was 2 µg/mL (≈ 5.61 µM); in the data set on Streptococcus pneumoniae, 1 µg/mL (≈ 2.81 µM); in the data set with Staphylococcus aureus, 1 µg/mL (≈ 2.81 µM); in the data set with Haemophilus influenzae, 1 µg/mL (≈ 2.81 µM). Besides, in data set [1], the solubility thermodynamic stood at 1400 µg/mL (≈ 3940 µM).

`Cc1nc2c(=O)n(C3CC3)c3cc(N4CC[C@H](CN)C4)c(F)cc3c2o1`: the MIC in the data set on Escherichia coli was 2 µg/mL (≈ 5.61 µM); with Streptococcus pneumoniae it was 0.5 µg/mL (≈ 1.4 µM); in the data set with Staphylococcus aureus it was 1 µg/mL (≈ 2.81 µM); with Haemophilus influenzae, 8 µg/mL (≈ 22.4 µM). Further, in data set [1], the solubility thermodynamic is 1400 µg/mL (≈ 3940 µM).

Consider `Cc1nc2c(=O)n(C3CC3)c3c(Cl)c(N4C[C@@H](C)N[C@@H](C)C4)c(F)cc3c2o1`, for which the MIC is 4 µg/mL (≈ 9.88 µM) with Escherichia coli, 16 µg/mL (≈ 39.5 µM) in the data set with Streptococcus pneumoniae, 8 µg/mL (≈ 19.8 µM) with Staphylococcus aureus and 8 µg/mL (≈ 19.8 µM) in the data set with Haemophilus influenzae. In addition, the solubility thermodynamic in data set [1] was 543 µg/mL (≈ 1340 µM).

As to `Cc1nc2c(=O)n(C3CC3)c3cc(N4CCC(CN)C4)c(F)cc3c2o1` (configuration not stated), the MIC was determined as 2 µg/mL (≈ 5.61 µM) in the data set with Escherichia coli, 0.5 µg/mL (≈ 1.4 µM) with Streptococcus pneumoniae, 0.5 µg/mL (≈ 1.4 µM) in the data set with Staphylococcus aureus and 8 µg/mL (≈ 22.4 µM) with Haemophilus influenzae.

For the molecule `Cc1nc2c(=O)n(C3CC3)c3cc(N4CCC(C(C)N)C4)c(F)cc3c2o1` (configuration not stated), the MIC came out at 4 µg/mL (≈ 10.8 µM) in the data set with Escherichia coli, 1 µg/mL (≈ 2.7 µM) in the data set on Streptococcus pneumoniae, 1 µg/mL (≈ 2.7 µM) in the data set on Staphylococcus aureus and 4 µg/mL (≈ 10.8 µM) in the data set on Haemophilus influenzae. Further, in data set [1], the solubility thermodynamic was found to be 1350 µg/mL (≈ 3640 µM).

For the molecule `CNC[C@H]1CCN(c2c(F)cc3c4oc(C)nc4c(=O)n(C4CC4)c3c2Cl)C1`, the MIC was determined as 2 µg/mL (≈ 4.94 µM) in the data set with Escherichia coli, 0.25 µg/mL (≈ 0.617 µM) in the data set on Streptococcus pneumoniae, 0.25 µg/mL (≈ 0.617 µM) with Staphylococcus aureus and 1 µg/mL (≈ 2.47 µM) in the data set with Haemophilus influenzae.

Regarding `Cc1nc2c(=O)n(C3CC3)c3cc(N4CC[C@@H](C(C)(C)N)C4)c(F)cc3c2o1`, the MIC with Escherichia coli was determined as 8 µg/mL (≈ 20.8 µM); in the data set on Streptococcus pneumoniae, 2 µg/mL (≈ 5.2 µM); in the data set with Staphylococcus aureus, 2 µg/mL (≈ 5.2 µM); with Haemophilus influenzae it was 16 µg/mL (≈ 41.6 µM). Besides, the solubility thermodynamic in data set [1] worked out at 1350 µg/mL (≈ 3520 µM).

`Cc1nc2c(=O)n(C3CC3)c3c(Cl)c(N4CC5CCCNC5C4)c(F)cc3c2o1` (configuration not stated): the MIC with Escherichia coli is 2 µg/mL (≈ 4.8 µM); in the data set with Streptococcus pneumoniae, 4 µg/mL (≈ 9.59 µM); in the data set on Staphylococcus aureus, 2 µg/mL (≈ 4.8 µM); in the data set on Haemophilus influenzae, 8 µg/mL (≈ 19.2 µM). In addition, the solubility thermodynamic in data set [1] came out at 1060 µg/mL (≈ 2550 µM).

In the case of `Cc1nc2c(=O)n(C3CC3)c3cc(N4CCC(O)C4)c(F)cc3c2o1` (configuration not stated), the MIC in the data set on Escherichia coli amounted to 64 µg/mL (≈ 186 µM); in the data set with Streptococcus pneumoniae, 64 µg/mL (≈ 186 µM); in the data set on Staphylococcus aureus it was 32 µg/mL (≈ 93.2 µM); in the data set on Haemophilus influenzae it was 4 µg/mL (≈ 11.6 µM).

For `Cc1nc2c(=O)n(C3CC3)c3cc(N4CC5CNCC5C4)c(F)cc3c2o1` (configuration not stated), the MIC was 4 µg/mL (≈ 10.9 µM) in the data set with Escherichia coli, 4 µg/mL (≈ 10.9 µM) in the data set with Streptococcus pneumoniae, 2 µg/mL (≈ 5.43 µM) in the data set on Staphylococcus aureus and 2 µg/mL (≈ 5.43 µM) with Haemophilus influenzae. The solubility thermodynamic in data set [1] came out at 1200 µg/mL (≈ 3240 µM).

`Cc1nc2c(=O)n(C3CC3)c3cc(N4CCC(N)C4)c(F)cc3c2o1` (configuration not stated): the MIC with Escherichia coli was 1 µg/mL (≈ 2.92 µM); in the data set on Streptococcus pneumoniae it was 8 µg/mL (≈ 23.4 µM); in the data set on Staphylococcus aureus, 2 µg/mL (≈ 5.84 µM); in the data set with Haemophilus influenzae, 1 µg/mL (≈ 2.92 µM).

For `Cc1nc2c(=O)n(C3CC3)c3c(Cl)c(N4CCC(CN(C)C)C4)c(F)cc3c2o1` (configuration not stated), the MIC is 4 µg/mL (≈ 9.55 µM) in the data set with Escherichia coli, 2 µg/mL (≈ 4.77 µM) with Streptococcus pneumoniae, 1 µg/mL (≈ 2.39 µM) in the data set with Staphylococcus aureus and 16 µg/mL (≈ 38.2 µM) in the data set on Haemophilus influenzae. Besides, the solubility thermodynamic in data set [1] was 1190 µg/mL (≈ 2850 µM).

For `Cc1nc2c(=O)n3c4c(c(N5CCC(CN)C5)c(F)cc4c2o1)OC[C@H]3C` (some centres not stated), the MIC in the data set on Escherichia coli was 64 µg/mL (≈ 172 µM); with Streptococcus pneumoniae, 128 µg/mL (≈ 344 µM); with Staphylococcus aureus it was 64 µg/mL (≈ 172 µM); in the data set on Haemophilus influenzae it was 128 µg/mL (≈ 344 µM).

As to `CNCC1CCN(c2c(F)cc3c4oc(C)nc4c(=O)n(C4CC4)c3c2Cl)C1` (configuration not stated), the MIC in the data set with Escherichia coli was 1 µg/mL (≈ 2.47 µM); in the data set on Streptococcus pneumoniae, 0.25 µg/mL (≈ 0.617 µM); with Staphylococcus aureus, 0.25 µg/mL (≈ 0.617 µM); in the data set with Haemophilus influenzae it was 1 µg/mL (≈ 2.47 µM). Further, the solubility thermodynamic in data set [1] was determined as 1180 µg/mL (≈ 2920 µM).

As for `Cc1nc2c(=O)n(C3CC3)c3c(Cl)c(N4CCNCC4)c(F)cc3c2o1`, the MIC was 0.5 µg/mL (≈ 1.33 µM) in the data set with Escherichia coli, 4 µg/mL (≈ 10.6 µM) in the data set on Streptococcus pneumoniae, 0.25 µg/mL (≈ 0.663 µM) with Staphylococcus aureus and 0.5 µg/mL (≈ 1.33 µM) in the data set on Haemophilus influenzae. The solubility thermodynamic in data set [1] came to 885 µg/mL (≈ 2350 µM).

On to `Cc1nc2c(=O)n3c4c(c(N5CCC(CN)C5)c(F)cc4c2o1)OC[C@@H]3C` (some centres not stated), for which the MIC with Escherichia coli turned out to be 2 µg/mL (≈ 5.37 µM); in the data set with Streptococcus pneumoniae, 0.5 µg/mL (≈ 1.34 µM); with Staphylococcus aureus, 0.5 µg/mL (≈ 1.34 µM); in the data set on Haemophilus influenzae, 4 µg/mL (≈ 10.7 µM).

For the molecule `Cc1nc2c(=O)n(C3CC3)c3c(Cl)c(N4CCC(N)CC4)c(F)cc3c2o1`, the MIC in the data set with Escherichia coli was 0.5 µg/mL (≈ 1.28 µM); in the data set with Streptococcus pneumoniae, 0.5 µg/mL (≈ 1.28 µM); in the data set on Staphylococcus aureus, 0.25 µg/mL (≈ 0.64 µM); in the data set on Haemophilus influenzae, 1 µg/mL (≈ 2.56 µM). Further, the solubility thermodynamic in data set [1] is 922 µg/mL (≈ 2360 µM).
